Test [1] concerns zebrafish αβδ nAChR. Format: cell-based, zebrafish (Danio rerio).
For test [2], the system named is zebrafish αβδ nAChR. The test is classed as cell-based, zebrafish (Danio rerio). This is another data set of the same source.

This is an account of results in article PMC7150935 (Toxins, 2020).

The term koff denotes the first-order rate constant of dissociation. A low value points to a long-lived complex. One may read the IC50 as the concentration at which inhibition is half-maximal.

Entries after “also recorded” stand apart in the source; their conditions may differ. Like-named read-outs stand apart in the source and are kept apart here. Bridge positions count the residues as written; N and C are the ends. Square brackets hold non-standard residues; d marks the D form. Peptide text beside a SMILES is read from it. pGlu = O=C1CC[C@@H](C(=O)O)N1

As for `CC[C@H](C)[C@@H]1NC(=O)[C@H](CC(C)C)NC(=O)[C@H](CCCNC(=N)N)NC(=O)[C@H](CC(=O)O)NC(=O)[C@H](CCCNC(=N)N)NC(=O)[C@H](Cc2ccccc2)NC(=O)[C@H](Cc2ccc(O)cc2)NC(=O)[C@H](CC(C)C)NC(=O)[C@@H]2CCCN2C(=O)[C@@H]2CSSC[C@@H](C(=O)O)NC(=O)[C@@H]3CSSC[C@H](NC(=O)[C@H](CCCCN)NC(=O)[C@@H]4CCC(=O)N4)C(=O)N[C@@H](CSSC[C@H](NC1=O)C(=O)N1CCC[C@H]1C(=O)N3)C(=O)N[C@@H](CO)C(=O)NCC(=O)NCC(=O)N[C@@H](CO)C(=O)N2` [αM-MIIIJ] ([pGlu]KCCSGGSCPLYFRDRLICPCC-OH; disulfide 3-21, 4-19, 9-22), in test [1], the “affinity of αβδ relative to αβδε and αβδγ” value is reported as “about a factor of two higher”; the koff was determined as 0.0417 s⁻¹; the “recovery of IACh on washout” value is given as “recovered almost completely within a minute”; the reversibility of block entry is listed as “readily reversible”. In addition, in test [1] (read-out: IC50), the IC50 was found to be 33 nM. Further, the IC50 in test [1] (read-out: IC50 (range statement)) was roughly 50 nM. In test [2], the “protection against α-BgTX block” value was “largely protected” and the “protection against α-EI block” value is on record as “rapidly reversed upon toxin washout; also recorded: completely protected”.
